Measured values reported in paper PMC3994669 (Cancer cell, 2014).
Where two headings read alike, the source gives them in different places. *1 amine or outer side, *2 acyl side, *3 side chain or, on linkers, in order; H or OH if unused. Where a SMILES comes first, the peptide text is derived from it. Bridges are numbered along the chain shown (N, C = ends). Roman numbers before positions name the chains, in order. [ ]: non-standard residue; d: D form. Actinocin(9to1) = Cc1c2oc3c(C)ccc(C(=O)[*:1])c3nc-2c(C(=O)[*:2])c(N)c1=O; NMeV = CN[C@H](C(=O)O)C(C)C; Sar = CNCC(=O)O

Experiments:
BJ = test: Dose-response proliferation assay on BJ control fibroblasts; type: cell-based; settings: Homo sapiens, read-out: EC50 BJ
Trp53-null neurospheres = test: Dose-response proliferation assay on control Trp53-null neurospheres; type: cell-based, mouse; settings: for EC50: Mus musculus, 72 h, read-out: EC50 Trp53-null; for efficacy against Trp53-null: 72 hr treatment
HepG2 = test: Dose-response proliferation assay on HepG2 control cells; type: cell-based; settings: Homo sapiens, HepG2, read-out: EC50 HepG2
[1] = test system: Myc1 mouse G3 MB neurospheres; test: Dose-response proliferation assay; type: cell-based; settings: for EC50: Mus musculus, 72 h, read-out: EC50 Myc1; for efficacy against Myc1: 72 hr treatment
Myc1 neurospheres = test: In vitro wash-out experiments on Myc1; type: cell-based; settings: Mus musculus
[2] = test system: four additional mouse G3 MB lines; test: Dose-response on four additional mouse G3 MB lines; type: cell-based; settings: four independently derived mouse G3 MB lines
H3K27me3 = H3K27me3 immunoblotting of Myc1 cell lysates; type: cell-based, mouse; settings: Myc1, 72 hr; 0.5 μM decitabine, 40 nM pemetrexed
Myc2 mouse G3 MB = test: Survival of mice with Myc2 G3 MB implants; settings: treatment at days 4 and 11; vehicle 11 days
SHH MB-derived line = test: Dose-response on SHH MB-derived line; type: cell-based, mouse
[3] = test system: OA-2012-1 G3 MB PDX neurospheres; test: Cell viability of G3 MB PDX OA-2012-1 neurospheres; type: cell-based; settings: Homo sapiens, 72 h, read-out: EC50 OA-2012-1
[4] = test system: human neural stem cells H9; test: Cell viability of human neural stem cells H9; type: cell-based; settings: H9, 72 h, read-out: EC50 H9 cells
Myc1 mouse G3 MB = test: Survival of mice with cortical Myc1 G3 MB implants; type: in vivo
mouse G3 MB tumor cells = test: Cell death; type: cell-based; settings: for cell death by Annexin V staining: tumor cells in vitro
[5] = type: in vivo; settings: murine plasma, single IV injection pemetrexed 200 mg/kg, gemcitabine 60 mg/kg
[6] = mouse, in vivo
[7] = test system: TB-12-5950 G3 MB PDX neurospheres; test: Cell viability of G3 MB PDX TB-12-5950 neurospheres; type: cell-based; settings: Homo sapiens, 72 h, read-out: EC50 TB-12-5950
[8] = read-out: EC50 wash-out, 1 hr drug exposure, read 72 hr after
[9] = read-out: EC50 wash-out, 10 hr drug exposure, read 72 hr after
[10] = read-out: EC50 wash-out, 24 hr drug exposure, read 72 hr after

SMILES | EC50 (Trp53-null neurospheres) | EC50 (HepG2) | EC50 [1] | other results
COc1cc(NS(C)(=O)=O)ccc1Nc1c2ccccc2nc2ccccc12 [Amsacrine] | 550 nM | 11000 nM | 160 nM | EC50 (BJ): 13000 nM
N=c1ccn2c(n1)O[C@H]1[C@H](O)[C@@H](CO)O[C@H]12 [Ancitabine] | 550 nM |  | 31 nM | 
CC(C)C[C@H](NC(=O)[C@H](Cc1ccccc1)NC(=O)c1cnccn1)B(O)O [Bortezomib] | 2.7 nM | 26 nM | 6.3 nM | EC50 (BJ): 23 nM
COCc1c(C(C)C)nc(C(C)C)c(/C=C/[C@@H](O)C[C@@H](O)CC(=O)O)c1-c1ccc(F)cc1 [Cerivastatin] | 2500 nM | 920 nM | 770 nM | 
Nc1nc(Cl)nc2c1ncn2[C@H]1C[C@H](O)[C@@H](CO)O1 [Cladrabine] | 250 nM | 3300 nM | 4.3 nM | EC50 (BJ): 1400 nM
Nc1nc(Cl)nc2c1ncn2[C@@H]1O[C@H](CO)[C@@H](O)[C@@H]1F [Clofarabine] | 340 nM |  | 150 nM | 
CC1(C)N=C(N)N=C(N)N1c1ccc(Cl)cc1 [Cycloguanil] | 180 nM |  | 110 nM | 
Nc1ccn([C@@H]2O[C@H](CO)[C@@H](O)[C@@H]2O)c(=O)n1 [Cytarabine] | 200 nM | 78 nM | 83 nM | 
Cc1c2oc3c(C)ccc(C(=O)N[C@@H]4C(=O)N[C@H](C(C)C)C(=O)N5CCC[C@H]5C(=O)N(C)CC(=O)N(C)[C@@H](C(C)C)C(=O)O[C@@H]4C)c3nc-2c(C(=O)N[C@@H]2C(=O)N[C@H](C(C)C)C(=O)N3CCC[C@H]3C(=O)N(C)CC(=O)N(C)[C@@H](C(C)C)C(=O)O[C@@H]2C)c(N)c1=O [Dactinomycin] (I: T[dV]P[Sar][NMeV] / II: T[dV]P[Sar][NMeV]; ester I:1-I:C, II:1-II:C; linker I:N-II:N via Actinocin(9to1)) | 2.4 nM | 8.4 nM | 0.9 nM | 
COc1cccc2c1C(=O)c1c(O)c3c(c(O)c1C2=O)C[C@@](O)(C(C)=O)C[C@@H]3O[C@H]1C[C@H](N)[C@H](O)[C@H](C)O1 [Daunorubicin] | 36 nM | 1700 nM | 7.5 nM | EC50 (BJ): 100 nM
Nc1ncn([C@H]2C[C@H](O)[C@@H](CO)O2)c(=O)n1 [Decitabine] | 32 nM |  | 1300 nM | EC50 (Myc1 neurospheres; [8]): ~2400 nM; EC50 (Myc1 neurospheres; [9]): ~920 nM; EC50 (Myc1 neurospheres; [10]): ~500 nM; potency and efficacy compared to Myc1 [2]: comparable potency and efficacy; efficacy against Trp53-null (Trp53-null neurospheres): ≤ 35%; H3K27me3 levels (H3K27me3): significantly decreased; efficacy against Myc1 [1]: 100%
COc1cccc2c1C(=O)c1c(O)c3c(c(O)c1C2=O)C[C@@](O)(C(=O)CO)C[C@@H]3O[C@H]1C[C@H](N)[C@H](O)[C@H](C)O1 [Doxorubicin] | 110 nM | 580 nM | 28 nM | EC50 (BJ): 140 nM
COc1cc([C@@H]2c3cc4c(cc3[C@@H](O[C@@H]3O[C@@H]5CO[C@@H](C)O[C@H]5[C@H](O)[C@H]3O)[C@H]3COC(=O)[C@H]23)OCO4)cc(OC)c1O [Etoposide] | 46 nM |  | 240 nM | 
O=c1[nH]c(=O)n([C@H]2C[C@H](O)[C@@H](CO)O2)cc1F [Floxuridine] | 0.1 nM |  | 1.6 nM | 
O=c1[nH]cc(F)c(=O)[nH]1 [Fluorouracil] | 220 nM |  | 360 nM | 
CC(C)n1c(/C=C/C(O)CC(O)CC(=O)O)c(-c2ccc(F)cc2)c2ccccc21 (centres unmarked) [Fluvastatin] |  |  | 4500 nM | 
Nc1ccn([C@@H]2O[C@H](CO)[C@@H](O)C2(F)F)c(=O)n1 [Gemcitabine] | 0.32 nM |  | 2.1 nM | median survival (Myc2 mouse G3 MB): 26 days; fold less sensitive compared to Myc1 (SHH MB-derived line): greater than 5 fold; EC50 [3]: 11 nM; EC50 [4]: 1.5 nM; increase in median survival (Myc1 mouse G3 MB; two doses of gemcitabine 60 mg/kg at days 2 and 9, vs vehicle): 11 days; EC50 (Myc1 neurospheres; [8]): 44 nM; EC50 (Myc1 neurospheres; [9]): 13 nM; EC50 (Myc1 neurospheres; [10]): 3.8 nM; potency and efficacy compared to Myc1 [2]: comparable potency and efficacy; histone 2AX (H2AX) foci (mouse G3 MB tumor cells; 1 hr treatment at 5 nM): induced histone 2AX (H2AX) foci; cell death by Annexin V staining (mouse G3 MB tumor cells): induced cell death; efficacy against Trp53-null (Trp53-null neurospheres): ≤ 63%; clearance relative to previously published reports [5]: around 2 fold; tolerability [6]: well tolerated; EC50 [7]: 5.1 nM; efficacy against Myc1 [1]: 100%

SMILES | EC50 (Trp53-null neurospheres) | EC50 (HepG2) | EC50 [1] | other results
CC[C@H](C)C(=O)O[C@H]1C[C@@H](C)C=C2C=C[C@H](C)[C@H](CC[C@@H]3C[C@@H](O)CC(=O)O3)[C@H]21 [Lovastatin] | 2100 nM | 13000 nM | 4000 nM | 
CN(Cc1cnc2nc(N)nc(N)c2n1)c1ccc(C(=O)N[C@@H](CCC(=O)O)C(=O)O)cc1 [Methotrexate] | 150 nM |  | 5.2 nM | 
COC(=O)Nc1nc2ccc(C(=O)c3cccs3)cc2[nH]1 [Nocodazole] | 94 nM | 15 nM | 110 nM | 
Nc1nc2[nH]cc(CCc3ccc(C(=O)N[C@@H](CCC(=O)O)C(=O)O)cc3)c2c(=O)[nH]1 [Pemetrexed] | 15000 nM |  | 35 nM | median survival (Myc2 mouse G3 MB): 28 days; sensitivity compared to Myc1 (SHH MB-derived line): as sensitive to pemetrexed as Myc1; EC50 [3]: 100 nM; EC50 [4]: 290 nM; increase in median survival (Myc1 mouse G3 MB; one dose of pemetrexed 200 mg/kg at day 3, vs vehicle): 3 days; increase in median survival (Myc1 mouse G3 MB; two doses of pemetrexed 200 mg/kg at days 3 and 10, vs vehicle): 7 days; EC50 (Myc1 neurospheres; [8]): 1200 nM; EC50 (Myc1 neurospheres; [9]): 500 nM; EC50 (Myc1 neurospheres; [10]): 180 nM; potency and efficacy compared to Myc1 [2]: comparable potency and efficacy; cell death by Annexin V staining (mouse G3 MB tumor cells): induced cell death; clearance relative to previously published reports [5]: around 2 fold; tolerability [6]: well tolerated; H3K27me3 levels (H3K27me3): no effect; EC50 [7]: 160 nM
O=C(O)C[C@H](O)C[C@H](O)/C=C/c1c(C2CC2)nc2ccccc2c1-c1ccc(F)cc1 [Pitavastatin] |  | 5000 nM | 3500 nM | 
COc1cc([C@@H]2c3cc4c(cc3[C@H](O)[C@H]3COC(=O)[C@H]23)OCO4)cc(OC)c1OC [Podofilox] | 7.4 nM | 3.9 nM | 6.4 nM | 
CCc1nc(N)nc(N)c1-c1ccc(Cl)cc1 [Pyrimethamine] | 870 nM |  | 4900 nM | 
Cc1nc2ccc(CN(C)c3ccc(C(=O)N[C@@H](CCC(=O)O)C(=O)O)s3)cc2c(=O)[nH]1 [Raltitrexed] | 340 nM |  | 3 nM | 
CC(C)c1nc(N(C)S(C)(=O)=O)nc(-c2ccc(F)cc2)c1/C=C/[C@@H](O)C[C@@H](O)CC(=O)O [Rosuvastatin] |  |  | 2600 nM | 
CCC(C)(C)C(=O)O[C@H]1C[C@@H](C)C=C2C=C[C@H](C)[C@H](CC[C@@H]3C[C@@H](O)CC(=O)O3)[C@H]21 [Simvastatin] |  | 9400 nM | 3000 nM | EC50 (BJ): 5800 nM
Nc1nc2nc[nH]c2c(=S)[nH]1 [Thioguanine] | 800 nM | 11000 nM | 440 nM | 
CC[C@@]1(O)C(=O)OCc2c1cc1n(c2=O)Cc2cc3c(CN(C)C)c(O)ccc3nc2-1 [Topotecan] | 180 nM | 90 nM | 75 nM | 
O=c1[nH]c(=O)n([C@H]2C[C@H](O)[C@@H](CO)O2)cc1C(F)(F)F [Trifluridine] | 2.9 nM |  | 38 nM | 
COc1cc(NCc2ccc3nc(N)nc(N)c3c2C)cc(OC)c1OC [Trimetrexate] | 4.7 nM |  | 35 nM | 
CC[C@]1(O)C[C@@H]2CN(CCc3c([nH]c4ccccc34)[C@@](C(=O)OC)(c3cc4c(cc3OC)N(C)[C@H]3[C@@](O)(C(=O)OC)[C@H](OC(C)=O)[C@]5(CC)C=CCN6CC[C@]43[C@@H]65)C2)C1 [Vinblastine] | 15 nM |  | 12 nM | 
CC[C@]1(O)C[C@H]2CN(CCc3c([nH]c4ccccc34)[C@@](C(=O)OC)(c3cc4c(cc3OC)N(C=O)[C@H]3[C@@](O)(C(=O)OC)[C@H](OC(C)=O)[C@]5(CC)C=CCN6CC[C@]43[C@@H]65)C2)C1 [Vincristine] | 10 nM |  | 9.4 nM | toxicity in mice [6]: intolerable toxicity
